Experiments:
[1] = Quantum yield measurements; assay type: physicochemical; conditions: referred to Rhodamine B in EtOH, excitation 510 nm, emission integrated 540-800 nm
Procedure: Quantum yields were calculated by measuring the integrated emission area of the fluorescent spectra, and referring them to the area measured for Rhodamine B in EtOH after excitation at 510 nm (ΦRho-B=0.70). Quantum yields for the BDM products were then calculated using equation below, where F represents the area of fluorescent emission, n is reflective index of the solvent, and Abs is absorbance at excitation wavelength selected for standards and samples. Emission was integrated from 540 nm to 800 nm.

[2] = Spectroscopic properties of the BDM library (absorbance and emission maxima); assay type: physicochemical

φ (quantum yield) [1] | λmax (ABS) [2] [nm] | λmax (EM) [2] [nm] | SMILES
0.54 | 557 | 569 | CCCc1ccc(/C=C/C2=[N+]3C(=C(CCN)c4cccn4[B-]3(F)F)C(C)=C2)cc1 [BDM-77]
0.03 | 600 | 663 | COc1ccc(-c2ccc(/C=C/C3=[N+]4C(=C(CCN)c5cccn5[B-]4(F)F)C(C)=C3)o2)cc1Cl [BDM-195]
0.28 | 554 | 567 | COc1cccc(/C=C/C2=[N+]3C(=C(CCN)c4cccn4[B-]3(F)F)C(C)=C2)c1Cl [BDM-281]
0.32 | 560 | 576 | COc1c(Br)cc(Br)cc1/C=C/C1=[N+]2C(=C(CCN)c3cccn3[B-]2(F)F)C(C)=C1 [BDM-241]
0.35 | 549 | 573 | CC1=CC(/C=C/c2c(C)cc(C)cc2C)=[N+]2C1=C(CCN)c1cccn1[B-]2(F)F [BDM-108]
0.59 | 559 | 574 | CC1=CC(/C=C/c2ccc(Oc3ccc(Cl)cc3)cc2)=[N+]2C1=C(CCN)c1cccn1[B-]2(F)F [BDM-277]
0.83 | 563 | 583 | C=CCOc1ccc(/C=C/c2cc(C)c3n2[B-](F)(F)[N+]2=CC=CC2=C3CCN)cc1 [BDM-48]
0.01 | 591 | – | CC1=CC(/C=C/c2ccc(N(C)C)cc2[N+](=O)[O-])=[N+]2C1=C(CCN)c1cccn1[B-]2(F)F [BDM-78]
0.30 | 557 | 575 | CSc1ccccc1/C=C/C1=[N+]2C(=C(CCN)c3cccn3[B-]2(F)F)C(C)=C1 [BDM-333]
0.10 | 570 | 614 | CCOc1cc(/C=C/C2=[N+]3C(=C(CCN)c4cccn4[B-]3(F)F)C(C)=C2)ccc1O [BDM-397]
0.39 | 555 | 565 | CC1=CC(/C=C/c2ccc(Oc3ccc(C(C)(C)C)cc3)cc2)=[N+]2C1=C(CCN)c1cccn1[B-]2(F)F [BDM-435]
0.51 | 544 | 561 | CC1=CC(/C=C/c2c(C)cccc2Cl)=[N+]2C1=C(CCN)c1cccn1[B-]2(F)F [BDM-285]
0.21 | 565 | 576 | CC1=CC(/C=C/c2ccc(-c3ccccn3)cc2)=[N+]2C1=C(CCN)c1cccn1[B-]2(F)F [BDM-88]
0.28 | 559 | 577 | CC1=CC(/C=C/c2cc(C)c(C)cc2C)=[N+]2C1=C(CCN)c1cccn1[B-]2(F)F [BDM-343]
0.99 | 565 | 592 | CC1=CC(/C=C/c2c(C)nn(C)c2C)=[N+]2C1=C(CCN)c1cccn1[B-]2(F)F [BDM-430]
0.15 | 566 | 588 | CC1=CC(/C=C/c2csc3ccccc23)=[N+]2C1=C(CCN)c1cccn1[B-]2(F)F [BDM-37]
0.07 | 564 | 580 | COc1cc(/C=C/C2=[N+]3C(=C(CCN)c4cccn4[B-]3(F)F)C(C)=C2)cc(O)c1OC [BDM-307]
0.35 | 558 | 572 | CC1=CC(/C=C/c2ccc(I)cc2)=[N+]2C1=C(CCN)c1cccn1[B-]2(F)F [BDM-237]
0.19 | 556 | 567 | CC1=CC(/C=C/c2ccc(Oc3cc(Cl)cc(Cl)c3)cc2)=[N+]2C1=C(CCN)c1cccn1[B-]2(F)F [BDM-308]
0.21 | 556 | 565 | CC1=CC(/C=C/c2ccc(F)c(Oc3ccccc3)c2)=[N+]2C1=C(CCN)c1cccn1[B-]2(F)F [BDM-311]
0.22 | 556 | 572 | CCc1ccccc1/C=C/C1=[N+]2C(=C(CCN)c3cccn3[B-]2(F)F)C(C)=C1 [BDM-251]
0.53 | 564 | 583 | CCCCOc1ccc(/C=C/c2cc(C)c3n2[B-](F)(F)[N+]2=CC=CC2=C3CCN)cc1 [BDM-46]
0.15 | 589 | 615 | CC1=CC(/C=C/c2ccc(-c3ccccc3)s2)=[N+]2C1=C(CCN)c1cccn1[B-]2(F)F [BDM-65]
0.17 | 554 | 566 | CC1=CC(/C=C/c2c(Cl)ccc(C)c2F)=[N+]2C1=C(CCN)c1cccn1[B-]2(F)F [BDM-246]

φ (quantum yield) [1] | λmax (ABS) [2] [nm] | λmax (EM) [2] [nm] | SMILES
0.54 | 571 | 599 | COc1cc(OC)c(/C=C/C2=[N+]3C(=C(CCN)c4cccn4[B-]3(F)F)C(C)=C2)cc1Br [BDM-247]
0.53 | 560 | 585 | CC1=CC(/C=C/c2ccc(OC(C)(C)C)cc2)=[N+]2C1=C(CCN)c1cccn1[B-]2(F)F [BDM-75]
0.33 | 554 | 567 | Cc1cccc(/C=C/c2cc(C)c3n2[B-](F)(F)[N+]2=CC=CC2=C3CCN)c1 [BDM-9]
0.10 | 577 | 601 | CC1=CC(/C=C/c2ccc(C)o2)=[N+]2C1=C(CCN)c1cccn1[B-]2(F)F [BDM-135]
0.33 | 567 | 588 | CSc1ccc(/C=C/c2cc(C)c3n2[B-](F)(F)[N+]2=CC=CC2=C3CCN)cc1 [BDM-18]
0.47 | 557 | 573 | COc1c(/C=C/C2=[N+]3C(=C(CCN)c4cccn4[B-]3(F)F)C(C)=C2)cc(C(C)(C)C)cc1C(C)(C)C [BDM-325]
0.31 | 554 | 563 | CC1=CC(/C=C/c2cccc(C=O)c2)=[N+]2C1=C(CCN)c1cccn1[B-]2(F)F [BDM-391]
0.05 | 578 | 612 | COc1cc(OC)c(OC)cc1/C=C/C1=[N+]2C(=C(CCN)c3cccn3[B-]2(F)F)C(C)=C1 [BDM-144]
0.26 | 559 | 570 | CC1=CC(/C=C/c2ccc(C)c(Cl)c2)=[N+]2C1=C(CCN)c1cccn1[B-]2(F)F [BDM-289]
0.42 | 566 | 600 | COc1ccc(/C=C/C2=[N+]3C(=C(CCN)c4cccn4[B-]3(F)F)C(C)=C2)c(C)c1C [BDM-310]
0.37 | 563 | 589 | CC1=CC(/C=C/c2cc3ccccc3c3ccccc23)=[N+]2C1=C(CCN)c1cccn1[B-]2(F)F [BDM-440]
0.87 | 543 | 565 | CC1=CC(/C=C/c2c(C)cccc2C)=[N+]2C1=C(CCN)c1cccn1[B-]2(F)F [BDM-243]
0.41 | 563 | 586 | COc1cc2ccccc2c(/C=C/C2=[N+]3C(=C(CCN)c4cccn4[B-]3(F)F)C(C)=C2)c1OC [BDM-301]
0.41 | 563 | 585 | CC1=CC(/C=C/c2ccc(OCc3ccc(F)cc3)cc2)=[N+]2C1=C(CCN)c1cccn1[B-]2(F)F [BDM-378]
0.43 | 567 | 594 | COc1ccc(/C=C/C2=[N+]3C(=C(CCN)c4cccn4[B-]3(F)F)C(C)=C2)cc1OC [BDM-62]
0.14 | 561 | 574 | Cc1cc(/C=C/c2cc(C)c3n2[B-](F)(F)[N+]2=CC=CC2=C3CCN)cc(C)c1OCc1ccccc1 [BDM-16]
0.39 | 553 | 566 | CC1=CC(/C=C/c2ccccc2)=[N+]2C1=C(CCN)c1cccn1[B-]2(F)F [BDM-27]
0.55 | 561 | 578 | COc1ccc(/C=C/C2=[N+]3C(=C(CCN)c4cccn4[B-]3(F)F)C(C)=C2)c(Cl)c1OC [BDM-372]
0.15 | 556 | 567 | CC1=CC(/C=C/c2cccc(O)c2Cl)=[N+]2C1=C(CCN)c1cccn1[B-]2(F)F [BDM-283]
0.22 | 574 | 594 | CC1=CC(/C=C/c2ccc(C)s2)=[N+]2C1=C(CCN)c1cccn1[B-]2(F)F [BDM-236]
0.05 | 617 | 681 | CCN(CC)c1ccc(/C=C/C2=[N+]3C(=C(CCN)c4cccn4[B-]3(F)F)C(C)=C2)cc1 [BDM-107]
0.30 | 576 | 612 | CC1=CC(/C=C/c2ccc3c4c(cccc24)CC3)=[N+]2C1=C(CCN)c1cccn1[B-]2(F)F [BDM-89]
0.18 | 562 | 574 | CC1=CC(/C=C/c2ccc(-c3cncnc3)cc2)=[N+]2C1=C(CCN)c1cccn1[B-]2(F)F [BDM-199]
0.19 | 558 | 565 | COc1cc(Cl)cc(/C=C/C2=[N+]3C(=C(CCN)c4cccn4[B-]3(F)F)C(C)=C2)c1OC [BDM-282]
